Holding throughout (type): functional
In test [1] the test system is Mycobacterium tuberculosis. Description: Antimycobacterial activity against isoniazid, streptomycin and ethambutol resistant Mycobacterium tuberculosis clinical isolate 01;104 assessed as reduction in 2 log10 bacterial colonies measured after 14 to 21 days by agar dilution method. Background: In agar dilution, organisms are placed on agar that contains the substance at set levels.

The subject of test [2] is Mycobacterium tuberculosis. Description: Antimycobacterial activity against rifampicin, streptomycin and ethambutol resistant Mycobacterium tuberculosis clinical isolate 01;005 assessed as reduction in 2 log10 bacterial colonies measured after 14 to 21 days by agar dilution method.
Test [3] relates to Mycobacterium tuberculosis variant bovis BCG. Description: Bactericidal activity against Mycobacterium bovis BCG ATCC 35734 assessed as log reduction in bacterial colonies at 2 times MIC measured at 9 hrs by time-kill assay.

Values after ≈ are worked out from the molar mass of the structure shown.

Data on 3 compounds can be found in ChEMBL document CHEMBL3872220, “Amphiphilic xanthones as a potent chemical entity of anti-mycobacterial agents with membrane-targeting properties” (Eur J Med Chem, 2016).

As a reminder, the MIC is the lowest concentration that inhibits growth of the organism.

For the compound `COc1c(OCCCCN2CCOCC2)cc2oc3cc(OCCCCN4CCOCC4)c(CC=C(C)C)c(O)c3c(=O)c2c1CC=C(C)C`, the MIC was 4 µg/mL (≈ 5.77 µM) in test [1] and 8 µg/mL (≈ 11.5 µM) in test [2]. Consider `CCCN(CCC)CCCCOc1cc2oc3cc(OCCCCN(CCC)CCC)c(OC)c(CC=C(C)C)c3c(=O)c2c(O)c1CC=C(C)C`, for which the Activity in test [3] came out at 2.8. With `CCN(CC)CCCCOc1cc2oc3cc(OCCCCN(CC)CC)c(OC)c(CC=C(C)C)c3c(=O)c2c(O)c1CC=C(C)C`, the figures for the MIC in test [1] and in test [2] were 4 µg/mL (≈ 6.02 µM) and 8 µg/mL (≈ 12 µM), respectively.
